These molecules were tested against T1, CXCR7 (Homo sapiens, UniProt P25106) (assay: PathHunter CHO-K1 CXCR7 b-arrestin recruitment assay (CXCR7 agonistic activity)). Conditions: PathHunter CHO-K1 CXCR7 b-arrestin cell line.
T1 construct: host or cells: CHO-K1 (PathHunter CHO-K1 CXCR7 b-arrestin cell line, stably transfected)
T1 sequence (P25106 whole entry): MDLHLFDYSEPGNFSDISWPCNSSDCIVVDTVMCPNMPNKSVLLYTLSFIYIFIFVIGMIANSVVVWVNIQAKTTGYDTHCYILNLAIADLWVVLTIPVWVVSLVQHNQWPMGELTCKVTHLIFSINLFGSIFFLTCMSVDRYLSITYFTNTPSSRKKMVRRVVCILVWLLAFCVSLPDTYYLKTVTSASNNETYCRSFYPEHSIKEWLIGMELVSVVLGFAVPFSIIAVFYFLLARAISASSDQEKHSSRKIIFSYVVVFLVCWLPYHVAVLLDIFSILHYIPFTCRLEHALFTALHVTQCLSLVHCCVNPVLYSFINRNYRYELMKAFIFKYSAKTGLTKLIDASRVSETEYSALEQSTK
T1 sequence (P32121 whole entry partner): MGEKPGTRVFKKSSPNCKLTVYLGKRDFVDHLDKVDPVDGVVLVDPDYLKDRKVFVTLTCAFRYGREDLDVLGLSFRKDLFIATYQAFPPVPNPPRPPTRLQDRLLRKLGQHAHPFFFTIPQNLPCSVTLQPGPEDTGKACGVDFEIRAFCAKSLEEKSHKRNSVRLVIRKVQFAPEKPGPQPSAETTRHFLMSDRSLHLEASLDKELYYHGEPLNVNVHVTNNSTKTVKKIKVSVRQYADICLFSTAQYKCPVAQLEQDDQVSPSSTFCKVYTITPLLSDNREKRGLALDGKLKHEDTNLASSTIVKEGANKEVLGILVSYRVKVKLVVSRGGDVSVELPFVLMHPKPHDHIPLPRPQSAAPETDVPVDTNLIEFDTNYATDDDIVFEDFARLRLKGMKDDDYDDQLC
Format: cell-based
Outline: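 Stable CHO-K1 line with C-terminally ProLink-tagged CXCR7 and β-arrestin 2–EA fusion; β-arrestin recruitment restores β-gal activity, read by chemiluminescence after 1 h RT detection. Cells seeded 24 h, starved in OPTIMEM 3–4 h, exposed to compounds 90 min at 37 °C in HBSS/HEPES/BSA. Geometric-mean EC50 from repeated measurements.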
Work on `CC(C)N(C)CCN(Cc1ccccc1C(F)(F)F)C(=O)CNc1cccc2c1CCN(CC1CC1)C2` [compound 449, 2-(2-Cyclopropylmethyl-1,2,3,4-tetrahydro-isoquinolin-5-ylamino)-N-[2-(isopropyl-methyl-amino)-ethyl]-N-(2-trifluoromethyl-benzyl)-acetamide] yielded an EC50 of 1 nM.
Molecule `CN(CCN(Cc1ccccc1C(F)(F)F)C(=O)CNc1cccc2c1CCN(CC1CC1)C2)CC1CC1` [compound 450, N-[2-(Cyclopropylmethyl-methyl-amino)-ethyl]-2-(2-cyclopropylmethyl-1,2,3,4-tetrahydro-isoquinolin-5-ylamino)-N-(2-trifluoromethyl-benzyl)-acetamide] has an EC50 of 1 nM.
In the case of `CN(CCN(Cc1ccccc1C(F)(F)F)C(=O)CNc1cccc2c1CCN(CC1CC1)C2)C1CCCC1` [compound 451, N-[2-(Cyclopentyl-methyl-amino)-ethyl]-2-(2-cyclopropylmethyl-1,2,3,4-tetrahydro-isoquinolin-5-ylamino)-N-(2-trifluoromethyl-benzyl)-acetamide], the EC50 is reported as 1 nM.
With `CCN(CCN(Cc1ccccc1C(F)(F)F)C(=O)CNc1cccc2c1CCN(CC1CC1)C2)CC1(C)COC1` [compound 453] the EC50 was 6 nM.
`CN(C)CCN(Cc1ccccc1C(F)(F)F)C(=O)CCc1cccc2c1CN(CC1CC1)CC2` [compound 454, 3-(2-Cyclopropylmethyl-1,2,3,4-tetrahydro-isoquinolin-8-yl)-N-(2-dimethylamino-ethyl)-N-(2-trifluoromethyl-benzyl)-propionamide] showed an EC50 of 3 nM.
Molecule `CN(C)CCN(Cc1ncccc1Cl)C(=O)CNc1cccc2c1CN(C1CCC1)CC2` [compound 455, N-(3-Chloro-pyridin-2-ylmethyl)-2-(2-cyclobutyl-1,2,3,4-tetrahydro-isoquinolin-8-ylamino)-N-(2-dimethylamino-ethyl)-acetamide] has an EC50 of 10 nM.
Molecule `CN(C)CCN(Cc1ncccc1Br)C(=O)CNc1cccc2c1CN(C1CCC1)CC2` [compound 456, N-(3-Bromo-pyridin-2-ylmethyl)-2-(2-cyclobutyl-1,2,3,4-tetrahydro-isoquinolin-8-ylamino)-N-(2-dimethylamino-ethyl)-acetamide] has an EC50 of 8 nM.
Work on `CC(C)(O)CN(Cc1ncccc1Cl)C(=O)CNc1cccc2c1CN(C1CCC1)CC2` [compound 457] yielded an EC50 of 232 nM.
`CC(C)(O)CN(Cc1ncccc1Br)C(=O)CNc1cccc2c1CN(C1CCC1)CC2` [compound 458] was tested, and the EC50 was 109 nM.
For `C=CCN(C)CCN(Cc1ccccc1C(F)(F)F)C(=O)CNc1cccc2c1CN(CC=C)CC2` [compound 463, N-[2-(Allyl-methyl-amino)-ethyl]-2-(2-allyl-1,2,3,4-tetrahydro-isoquinolin-8-ylamino)-N-(2-trifluoromethyl-benzyl)-acetamide], the EC50 was 16 nM.
`C=CCN1CCc2cccc(NCC(=O)N(CCN(C)C)Cc3ccccc3OC(F)(F)F)c2C1` [compound 464, 2-(2-Allyl-1,2,3,4-tetrahydro-isoquinolin-8-ylamino)-N-(2-dimethylamino-ethyl)-N-(2-trifluoromethoxy-benzyl)-acetamide] showed an EC50 of 36 nM.
Molecule `C=CCN1CCc2cccc(NCC(=O)N(CCN(C)CCF)Cc3ccccc3C(F)(F)F)c2C1` [compound 465, 2-(2-Allyl-1,2,3,4-tetrahydro-isoquinolin-8-ylamino)-N-{2-[(2-fluoro-ethyl)-methyl-amino]-ethyl}-N-(2-trifluoromethyl-benzyl)-acetamide] has an EC50 of 39 nM.
Work on `C=CCN1CCc2cccc(NCC(=O)N(CCN(C)C)Cc3ccccc3C(F)(F)F)c2C1` [compound 466, 2-(2-Allyl-1,2,3,4-tetrahydro-isoquinolin-8-ylamino)-N-(2-dimethylamino-ethyl)-N-(2-trifluoromethyl-benzyl)-acetamide] yielded an EC50 of 13 nM.
For `C=CCN(C)CCN(Cc1ccccc1C(F)(F)F)C(=O)CCc1cccc2c1CN(CC=C)CC2` [compound 467, N-[2-(Allyl-methyl-amino)-ethyl]-3-(2-allyl-1,2,3,4-tetrahydro-isoquinolin-8-yl)-N-(2-trifluoromethyl-benzyl)-propionamide], the EC50 was 14 nM.
